{"source": "patent US20230416830A1", "about": "“METHODS AND COMPOSITIONS FOR PREDICTING AND TREATING UVEAL MELANOMA” (INSERM (INSTITUT NATIONAL DE LA SANTÉ ET DE LA RECHERCHE …, priority 2020, published 2023)", "type_in_all_cases": "cell-based, human", "key": {"NOTCH reporter activity": {"test_system": "NOTCH reporter activity", "assay": "NOTCH reporter vector assay in OMM1 uveal melanoma cells", "protocol": "(§1) FIG. 9: NOTCH signaling controls uveal melanoma cell growth and migration. (A) OMIVI1 uveal melanoma cells were transfected with the NOTCH reporter vector before being treated or not with DLL4 1μg/ml in absence or presence of BMS-906024 10 μM. Data shown are mean +SD of three experiments. ***p<0.001 and *p<0.05. (B) 3D spheroid assays of 92.1 cells exposed to DAPT 10μg/ml or BMS-906024 lOpM for 96 h. Surface of the imaged spheroid area was determined. ***p<0.001. Representative images are shown. (C) Boyden chambers experiments with 92.1 cells treated or not with DLL4 1 μg/ml. Data shown are mean+SD of three experiments. **p<0.01. Representative images are shown.\nHuman uveal melanoma cell lines Me127051, 92.152, OMM2.551 were grown in RPMI glutamax supplemented with 10% FBS, OMM153 were grown in DMEM glutamax supplemented with Sodium Pyruvate 1%, MEM Essential Vitamin Mixture 1%, NEAA 1%, Hepes 1%, 10% FBS, MP46, MP65 (from ATCC) were grown in DMEM/F12 w/Glutamine 10% FBS, Glutamax 2mM, Insulin-Transferin-Selenium 0.5x at 37° C. in a humidified atmosphere containing 5% CO2. LipofectamineTM RNAiMAX and opti-MEM medium were purchased from Invitrogen (San Diego, CA, USA). BMS-906024 (#BM0018) and DAPT (#5942) were obtained from Sigma, DLL4 from R&D systems (#1506-D4-050)."}, "[1]": {"test_system": "92.1 primary uveal melanoma cells", "assay": "3D spheroid (melanosphere) assay of 92.1 cells", "settings": "96 h", "from_the_text": "FIG. 8: HES6 knockdown inhibits uveal melanoma anchorage-dependent and—independent cell growth. (A) Q-RT-PCR showing HES6 level in OMM2.5 metastatic melanoma cells transfected with a control siRNA (siCtl) or two different pools of multiple siRNA targeting HES6 (siHES6#1 and siHES6#2). (B-C) Colony formation assay of OMM2.5 and OMM1 metastatic uveal melanoma cells treated with control siRNA or with two different pools of multiple siRNA targeting HES6 (siHES6#1 and siHES6#2). Representative images are shown. (D) 92.1 primary uveal melanoma cells expressing doxycycline-inducible control or two different HES6 shRNA in presence of 1 μg/ml doxycycline for 72 hrs. Efficiency is shown by RT-QPCR. ***p<0.001 (E) Colony formation assay of 92.1 primary uveal melanoma cells expressing doxycycline-inducible control or two different HES6 shRNA. Representative images are shown. Crystal violet was next dissolved and measured at 490 nm. ***p<0.001. (F) 3D spheroid assays of 92.1 cells expressing doxycycline-inducible control or HES6 shRNA in presence of 1 μg/ml doxycycline for 96 hrs. Surface of the imaged spheroid area was determined. ***p<0.001. Representative images are shown.\nFIG. 9: NOTCH signaling controls uveal melanoma cell growth and migration. […] Surface of the imaged spheroid area was determined. ***p<0.001. […]"}, "92.1 cells": {"test_system": "92.1 cells", "assay": "Boyden chamber migration of 92.1 cells", "settings": "DLL4 1 μg/ml", "protocol": "as §1\nFIG. 11: HES6 inhibition impairs metastatic uveal melanoma cells motile ability. Migration of 92.1 cells expressing doxycycline-inducible control or HES6 shRNA in presence of 1 μg/ml doxycycline for 48 hrs in presence or absence of DLL4 1 μg/ml. ***p<0.001. Representative images are shown.\n(§2) Cell migration was assessed using a modified Boyden chamber assay with 8-μm pore filter inserts for 24-well plates (BD Bioscience). Cells were seeded on the upper chamber of a trans-well and DMEM 7% FBS placed into the lower chamber. Cells adherent to the underside of the filters were fixed with 4% PFA, stained with 0.4% crystal violet and five random fields at x20 magnification were counted. […]"}, "[2]": {"test_system": "Me1270 primary uveal melanoma cells", "assay": "Migration of Me1270 cells", "settings": "Me1270 cells expressing doxycycline-inducible HES6 shRNA, doxycycline 1 μg/ml 48 hrs, DLL4 1 μg/ml", "from_the_text": "FIG. 6: HES6 expression in primary uveal melanomas controls the motile ability. (A) Relative expression of HES/HEY gene family (TCGA dataset). (B) Human primary uveal Me1270 melanoma cells were transfected with a control siRNA (siCtl) or two different pools of multiple siRNA targeting HES6 (siHES6#1 and siHES6#2). siRNA efficacy is shown by RT-QPCR. (C) Migration Me1270 cells transfected with the indicated siRNA. ***p<0.001. Representative images are shown. (D) Colony formation assay of Me1270 cells transfected with the indicated siRNA. ***p<0.001. Representative images are shown.\nFIG. 10: HES6 signaling is a key driver of aggressive and motile phenotypes. Migration of Me1270 cells expressing doxycycline-inducible control or HES6 shRNA in presence of 1 μg/ml doxycycline for 48 hrs in presence or absence of DLL4 1 *g/ml. ***p<0.001. Representative images are shown.\nBriefly, a single pulse of 50 nM of HES6 siRNA (Dharmacon L-008408-00-0005 and […]\nas §2, with “Cells were seeded on the upper chamber of a trans-well and DMEM 7% FBS placed into the lower chamber.” left out"}}, "data": [{"compound": "CN1C(=O)[C@@H](NC(=O)[C@H](CCC(F)(F)F)[C@H](CCC(F)(F)F)C(N)=O)N=C(c2ccccc2)c2ccccc21", "note": "[BMS-906024, reference compound]", "values": [{"measurement": "effect on DLL4-increased NOTCH reporter activity", "setting": "NOTCH reporter activity; DLL4 1μg/ml in presence of BMS-906024 10 μM", "result": "inhibited"}, {"measurement": "melanosphere formation (surface of spheroid area)", "setting": "[1]; BMS-906024 lOpM", "result": "reduced"}]}, {"compound": "O=C(O)CN(CC(=O)O)CC(O)CN(CC(=O)O)CC(=O)O", "note": "[DAPT, diaminopropanol tetraacetic acid]", "values": [{"measurement": "melanosphere formation (surface of spheroid area)", "setting": "[1]; DAPT 10μg/ml", "result": "reduced"}]}, {"compound": "DLL4: Delta-like ligand 4, NOTCH natural ligand, from R&D systems (#1506-D4-050)", "values": [{"measurement": "NOTCH reporter activity", "setting": "NOTCH reporter activity; DLL4 1μg/ml", "result": "increased"}, {"measurement": "migration in HES6 knockdown cells", "setting": "92.1 cells; 92.1 cells expressing doxycycline-inducible HES6 shRNA, doxycycline 1 μg/ml 48 hrs", "result": "could no longer increased migration"}, {"measurement": "uveal melanoma cell migration", "setting": "92.1 cells; 92.1 cells", "result": "enhanced"}, {"measurement": "migration in HES6 knockdown cells", "setting": "[2]", "result": "could no longer increased migration"}]}]}
